Measured values reported in patent US10428080B2, “TBK/IKK inhibitor compounds and uses thereof” (Merck Patent GmbH, priority 2015, dated 2019).
Counter-ions that a name gives are not always drawn. Like-named read-outs stand apart in the source and are kept apart here.

Key:
[1] = biological target: T1, TBK1 (Homo sapiens, UniProt Q9UHD2); assay: TBK Biochemical Assay
T1 sequence (Q9UHD2 1-729): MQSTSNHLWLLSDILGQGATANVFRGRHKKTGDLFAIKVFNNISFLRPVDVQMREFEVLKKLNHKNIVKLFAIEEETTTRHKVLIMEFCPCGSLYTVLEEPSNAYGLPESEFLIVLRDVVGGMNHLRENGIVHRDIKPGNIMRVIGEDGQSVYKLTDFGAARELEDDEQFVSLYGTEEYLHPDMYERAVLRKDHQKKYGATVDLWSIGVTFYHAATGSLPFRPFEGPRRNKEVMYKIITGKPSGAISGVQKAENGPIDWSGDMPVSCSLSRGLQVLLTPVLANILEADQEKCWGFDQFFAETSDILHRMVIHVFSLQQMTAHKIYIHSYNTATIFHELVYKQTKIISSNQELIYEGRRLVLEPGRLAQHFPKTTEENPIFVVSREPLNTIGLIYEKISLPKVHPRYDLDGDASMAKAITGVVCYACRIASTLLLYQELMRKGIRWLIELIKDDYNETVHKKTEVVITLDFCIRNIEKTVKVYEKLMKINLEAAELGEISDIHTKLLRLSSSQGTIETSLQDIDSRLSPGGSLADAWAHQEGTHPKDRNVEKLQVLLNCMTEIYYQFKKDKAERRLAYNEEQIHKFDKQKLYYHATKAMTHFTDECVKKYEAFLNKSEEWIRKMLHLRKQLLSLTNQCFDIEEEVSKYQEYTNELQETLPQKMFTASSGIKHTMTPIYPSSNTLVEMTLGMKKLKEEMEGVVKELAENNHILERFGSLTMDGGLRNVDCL
How it was run: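 TBK1 enzyme and substrate incubated with compounds (10-point 1:4 dilution, top 30 uM final, 1% DMSO) for 90 min at 25° C, then stopped. Substrate/product peaks read by microfluidic mobility-shift (Caliper LabChip); 10 uM staurosporine as full-inhibition control.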

[2] = biological target: T2, IKKε (Homo sapiens, UniProt Q14164); assay: IKKe Biochemical Assay
T2 sequence (Q14164 1-716): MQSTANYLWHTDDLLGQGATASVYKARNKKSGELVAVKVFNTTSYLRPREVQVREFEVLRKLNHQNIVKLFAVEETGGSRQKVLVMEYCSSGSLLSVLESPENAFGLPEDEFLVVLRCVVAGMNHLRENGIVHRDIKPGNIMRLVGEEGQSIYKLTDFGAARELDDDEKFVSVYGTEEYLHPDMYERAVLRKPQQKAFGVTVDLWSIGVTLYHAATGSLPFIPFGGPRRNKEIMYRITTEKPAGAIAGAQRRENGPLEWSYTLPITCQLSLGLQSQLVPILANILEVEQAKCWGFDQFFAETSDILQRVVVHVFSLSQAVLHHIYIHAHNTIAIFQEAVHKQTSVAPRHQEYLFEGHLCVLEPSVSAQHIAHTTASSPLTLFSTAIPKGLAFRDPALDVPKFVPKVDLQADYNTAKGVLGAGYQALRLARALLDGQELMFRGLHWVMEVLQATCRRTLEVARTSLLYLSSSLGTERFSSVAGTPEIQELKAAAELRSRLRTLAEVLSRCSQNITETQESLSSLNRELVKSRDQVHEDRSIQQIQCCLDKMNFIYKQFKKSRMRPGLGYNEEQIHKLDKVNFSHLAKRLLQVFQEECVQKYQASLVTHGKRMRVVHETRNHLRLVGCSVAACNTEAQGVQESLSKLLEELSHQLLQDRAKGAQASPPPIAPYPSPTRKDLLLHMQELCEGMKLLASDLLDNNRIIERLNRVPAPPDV
How it was run: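 Recombinant IKKε and substrate were incubated with compound (10-point 1:4 series, top 30 uM final, 1% DMSO) for 90 min at 25° C, then stopped. Substrate-to-product conversion was read by LabChip microfluidic mobility shift; 10 uM staurosporine served as full-inhibition wells.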

[3] = test system: phosphorylation of the IRF-3 protein in MDA-MB-468 cells; assay: pIRF3 immunocytochemistry cell based assay; settings: Homo sapiens
How it was run: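 MDA-MB-468 cells got compounds (10-point, 3-fold from 10 uM) for 1 h at 37 °C, then 10 ug/ml Poly(I:C) for 2 h. Fixed, permeabilized cells were immunostained for pIRF3 with AlexaFluor488 and counterstained with PI. % phosphorylation was read by laser scanning cytometry, and IC50 curves were fitted.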

[4] = MDA-MB-468 cells, Poly(I:C) stimulation, read-out: pIRF3 IC50
[5] = MDA-MB-468, read-out: pIRF3 IC50

Row | IC50 ([1]; read-out: TBK1 IC50) | IC50 ([2]; read-out: IKKε IC50) | IC50 [3, 4] | SMILES | IC50 [3, 5] | IC50 ([1]; TBK1 IC50) | IC50 [2]
1 | < 100 nM | < 100 nM | < 100 nM | COc1cc(C(=O)N(C)CCN2CCCC2)ccc1-c1cc2nccc(-c3ccc(OC4CCOCC4)c(C#N)c3)c2o1 [Compound 473, 4-{7-[3-Cyano-4-(tetrahydro-pyran-4-yloxy)-phenyl]-furo[3,2-b]pyridin-2-yl}-3-methoxy-N-methyl-N-(2-pyrrolidin-1-yl-ethyl)-benzamide] | – | – | –
2 | < 100 nM | < 100 nM | 100 to 1000 nM | CN(C)C(=O)c1ccc(-c2cc3nccc(-c4ccc(OC5CCOCC5F)c(C#N)c4)c3o2)cc1 (stereo not drawn) [Compound 129] | – | – | –
3 | < 100 nM | < 100 nM | < 100 nM | COc1cc(C(=O)N(C)CCO)cnc1-c1cc2nccc(-c3ccc(OC4CCOCC4)c(C#N)c3)c2o1 [Compound 328, 6-[7-[3-cyano-4-(oxan-4-yloxy)phenyl]furo[3,2-b]pyridin-2-yl]-N-(2-hydroxyethyl)-5-methoxy-N-methylpyridine-3-carboxamide] | – | – | –
4 | 100 to 1000 nM | 100 to 1000 nM | 100 to 1000 nM | COc1cc(C(=O)N(C)C)ncc1-c1cc2nccc(-c3ccc(OC4CN(C)C4)c(C#N)c3)c2o1 [Compound 424, 5-(7-[3-cyano-4-[(1-methylazetidin-3-yl)oxy]phenyl]furo[3,2-b]pyridin-2-yl)-4-methoxy-N,N-dimethylpyridine-2-carboxamide] | – | – | –
5 | < 100 nM | < 100 nM | 100 to 1000 nM | COc1cc(C(=O)N2CCCC2)cnc1-c1cc2nccc(-c3ccc(OC4CCOCC4)c(C#N)c3)c2o1 [Compound 416, 5-(2-[3-methoxy-5-[(pyrrolidin-1-yl)carbonyl]pyridin-2-yl]furo[3,2-b]pyridin-7-yl)-2-(oxan-4-yloxy)benzonitrile hydrochloride] | – | – | –
6 | < 100 nM | < 100 nM | < 100 nM | COc1cc(C(=O)N2CC(N(C)C)C2)ccc1-c1cc2nccc(-c3ccc(OC4CCOCC4)c(C#N)c3)c2o1 [Compound 24, 5-{2-[4-(3-Dimethylamino-azetidine-1-carbonyl)-2-methoxy-phenyl]-furo[3,2-b]pyridin-7-yl}-2-(tetrahydro-pyran-4-yloxy)-benzonitrile] | – | – | –
7 | 100 to 1000 nM | 100 to 1000 nM | 100 to 1000 nM | COc1cc(C(=O)N(C)C)cnc1-c1cc2nccc(-c3ccc(OC4CCN(C(C)C)C4)c(C#N)c3)c2o1 (stereo not drawn) [Compound 427, 6-(7-(3-cyano-4-(1-isopropylpyrrolidin-3-yloxy)phenyl)furo[3,2-b]pyridin-2-yl)-5-methoxy-N,N-dimethylnicotinamide] | – | – | –
8 | < 100 nM | < 100 nM | 100 to 1000 nM | COc1cc(C(=O)N2CC3COCC3C2)cnc1-c1cc2nccc(-c3ccc(NC4CCOCC4)c(C#N)c3)c2o1 (stereo not drawn) [Compound 420, 5-[2-[5-([hexahydro-1H-furo[3,4-c]pyrrol-5-yl]carbonyl)-3-methoxypyridin-2-yl]furo[3,2-b]pyridin-7-yl]-2-[(oxan-4-yl)amino]benzonitrile] | – | – | –
9 | 100 to 1000 nM | < 100 nM | 1000 to 5000 nM | COc1cc(-c2cc3nccc(-c4ccc(OC5CCOCC5)c(C#N)c4)c3o2)cnc1C(=O)N(C)C [Compound 393, 5-[7-[3-cyano-4-(oxan-4-yloxy)phenyl]furo[3,2-b]pyridin-2-yl]-3-methoxy-N,N-dimethylpyridine-2-carboxamide] | – | – | –
10 | < 100 nM | < 100 nM | 100 to 1000 nM | COc1nc(C(=O)N(C)C)ccc1-c1cc2nccc(-c3ccc(N4CC[C@@H](F)C4)c(C#N)c3)c2o1 [Compound 313, 5-{7-[3-Cyano-4-((R)-3-fluoro-pyrrolidin-1-yl)-phenyl]-furo[3,2-b]pyridin-2-yl}-6-methoxy-pyridine-2-carboxylic acid dimethylamide] | – | – | –
11 | < 100 nM | < 100 nM | 100 to 1000 nM | COc1cc(C(=O)NC2CCN(C)C2)ccc1-c1cc2nccc(-c3ccc(OC4CCOCC4)c(C#N)c3)c2o1 (stereo not drawn) [Compound 64, 4-{7-[3-Cyano-4-(tetrahydro-pyran-4-yloxy)-phenyl]-furo[3,2-b]pyridin-2-yl}-3-methoxy-N-(1-methyl-pyrrolidin-3-yl)-benzamide] | – | – | –
12 | < 100 nM | < 100 nM | < 100 nM | COc1cc(C(=O)N2CC3COCC3C2)ccc1-c1cc2nccc(-c3ccc(NC4CCOCC4)c(C#N)c3)c2o1 (stereo not drawn) [Compound 513] | – | – | –
13 | < 100 nM | < 100 nM | 100 to 1000 nM | COc1cc(C(=O)N(C)C)cnc1-c1cc2nccc(-c3ccc(OC4CCN(C)CC4(F)F)c(C#N)c3)c2o1 (stereo not drawn) [Compound 404, 6-(7-[3-cyano-4-[(3,3-difluoro-1-methylpiperidin-4-yl)oxy]phenyl]furo[3,2-b]pyridin-2-yl)-5-methoxy-N,N-dimethylpyridine-3-carboxamide] | – | – | –
14 | < 100 nM | < 100 nM | < 100 nM | COc1cc(C(=O)N2CCN(C)CC2)ccc1-c1cc2nccc(-c3ccc(OC4CCOCC4)c(C#N)c3)c2o1 [Compound 15, 5-{2-[2-Methoxy-4-(4-methyl-piperazine-1-carbonyl)-phenyl]-furo[3,2-b]pyridin-7-yl}-2-(tetrahydro-pyran-4-yloxy)-benzonitrile] | – | – | –
15 | – | – | – | COc1cc(C(=O)NC2CN3CCC2CC3)ccc1-c1cc2nccc(-c3ccc(NC4C5COCC54)c(C#N)c3)c2o1 (stereo not drawn) [Compound 119, N-(1-Aza-bicyclo[2.2.2]oct-3-yl)-4-{7-[3-cyano-4-(3-oxa-bicyclo[3.1.0]hex-6-ylamino)-phenyl]-furo[3,2-b]pyridin-2-yl}-3-methoxy-benzamide] | < 100 nM | < 100 nM | < 100 nM

Row | SMILES | IC50 ([1]; read-out: TBK1 IC50) | IC50 ([2]; read-out: IKKε IC50) | IC50 [3, 4] | IC50 [3, 5] | IC50 ([1]; TBK1 IC50) | IC50 [2]
16 | COc1cc(C(=O)N2C3CCCC2CC3)ccc1-c1cc2nccc(-c3ccc(OC4CCOCC4)c(C#N)c3)c2o1 [Compound 509] | < 100 nM | < 100 nM | 100 to 1000 nM | – | – | –
17 | COc1cc(C(=O)N(C)C2CN3CCC2CC3)ccc1-c1cc2nccc(-c3ccc(OC4CCOCC4)c(C#N)c3)c2o1 (stereo not drawn) [Compound 472, N-(1-Aza-bicyclo[2.2.2]oct-3-yl)-4-{7-[3-cyano-4-(tetrahydro-pyran-4-yloxy)-phenyl]-furo[3,2-b]pyridin-2-yl}-3-methoxy-N-methyl-benzamide] | < 100 nM | < 100 nM | < 100 nM | – | – | –
18 | COc1cc(C(=O)N(C)C)cnc1-c1cc2nccc(-c3ccc(NC4CCOCC4)c(C#N)n3)c2o1 [Compound 315, 6-(7-[6-cyano-5-[(oxan-4-yl)amino]pyridin-2-yl]furo[3,2-b]pyridin-2-yl)-5-methoxy-N,N-dimethylpyridine-3-carboxamide hydrochloride] | < 100 nM | < 100 nM | – | 100 to 1000 nM | – | –
19 | CN(C)C(=O)c1cc(-c2cc3nccc(-c4ccc(OC5CCOCC5)c(C#N)c4)c3o2)n(C)c1 [Compound 400, 5-[7-[3-cyano-4-(oxan-4-yloxy)phenyl]furo[3,2-b]pyridin-2-yl]-N,N,1-trimethyl-1H-pyrrole-3-carboxamide] | < 100 nM | < 100 nM | – | 100 to 1000 nM | – | –
